This is an account of results in EP0329905A1, “Use of quinolizine and quinolizinone derivatives in the manufacture of medicaments for increasing gastric motility” (MERRELL DOW PHARMACEUTICALS INC., priority 1988, dated 1989).

Counter-ions that a name gives are not always drawn.

This assay concerns Von Bezold-Jarisch Reflex induced by 5-HT. Kind of assay: Von Bezold-Jarisch Reflex induced by 5-HT injected intravenously into the rat. The assay is classed as in vivo. From the text: The activity of these compounds against 5-HT can be assessed in vivo by measurement of the effect of the compound on the Von Bezold-Jarisch Reflex induced by 5-HT injected intravenously into the rat (see Paintal A.S., Physiol. Rev. 53, 159-227, 1973; J.R. Fozard, Naunyn-Schmiedeberg's Arch. Pharmacol., 326, 1984, 36-44). The transient cardiac slowing arises from an increased afferent vagus activity arising from stimulation by 5-HT of sensory afferent fibers in and around the heart.

[1] abbreviates: doses of 0.01-0.1 mg/kg given intravenously.
Setting [2] is: doses of 0.25-1 mg/kg given orally.

As for `Cc1cc(C)cc(C(=O)OC2CC3CC4CC(C2)N3CC4=O)c1` (stereo not drawn) [endo-8-(3,5-dimethylbenzoyloxy)hexahydro-2,6-methano-2H-quinolizin-3(4H)-one hydrochloride], the “suppression of the Von Bezold-Jarisch Reflex induced by 5-HT” value is, setting by setting: under setting [1], “suppressed the response dose-dependently”; under setting [2], “suppressed the response dose-dependently”.
As for `O=C(OC1CC2CC3CC(C1)N2CC3=O)c1c[nH]c2ccccc12` (stereo not drawn) [endo-hexahydro-8-(3-indolylcarbonyloxy)-2,6-methano-2H-quinolizin-3(4H)one hydrochloride], the “suppression of the Von Bezold-Jarisch Reflex induced by 5-HT” value was “suppressed the response dose-dependently” under setting [1] and “suppressed the response dose-dependently” under setting [2].
